Measured values from paper PMC10056986 (Pharmaceuticals, 2023).
Values joined by “and” are separate entries in the source; they are usually repeats but may differ in a detail not shown here. Identical values can stand only once. Like-named read-outs stand apart in the source and are kept apart here.

Assays:
CDK2 = CDK2 (Homo sapiens, UniProt P24941); test: biochemical
FGFR1 = FGFR1 (Homo sapiens, UniProt P11362); test: biochemical
JNK1 = JNK1 (Homo sapiens, UniProt P45983); test: biochemical
p38 alpha = p38 alpha (Homo sapiens, UniProt Q16539); test: biochemical
op-mu [1] = biological target: T1, op-mu (Homo sapiens, UniProt P35372); test: cell-based
D1 = D1 (Homo sapiens, UniProt P21728); test: cell-based
M1 = M1 (Homo sapiens, UniProt P11229); test: cell-based
M2 = M2 (Homo sapiens, UniProt P08172); test: cell-based
Beta2 = Beta2 (Homo sapiens, UniProt P07550); test: cell-based
CCKa = biological target: T2, CCKa (Homo sapiens, UniProt P32238); test: cell-based
T2 sequence (P32238 1-428): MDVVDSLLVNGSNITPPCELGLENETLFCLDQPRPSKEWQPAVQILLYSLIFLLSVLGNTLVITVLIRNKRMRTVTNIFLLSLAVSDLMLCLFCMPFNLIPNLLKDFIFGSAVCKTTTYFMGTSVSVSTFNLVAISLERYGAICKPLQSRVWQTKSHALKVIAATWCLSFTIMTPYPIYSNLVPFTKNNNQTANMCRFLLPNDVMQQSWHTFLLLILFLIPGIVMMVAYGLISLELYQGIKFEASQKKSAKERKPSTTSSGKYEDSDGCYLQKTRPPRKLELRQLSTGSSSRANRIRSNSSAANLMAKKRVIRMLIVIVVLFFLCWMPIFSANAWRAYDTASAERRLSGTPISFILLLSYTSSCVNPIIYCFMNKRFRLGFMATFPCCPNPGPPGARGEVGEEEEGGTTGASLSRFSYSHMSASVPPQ

CB2 = CB2 (Homo sapiens, UniProt P34972); test: cell-based
V1a [2] = biological target: T3, V1a (Homo sapiens, UniProt P37288); test: cell-based
op-delta = op-delta (Homo sapiens, UniProt P41143); test: cell-based
op-mu [3] = biological target: T1, op-mu; test: cell-based; remark: listed apart in the source
D2 = D2 (Homo sapiens, UniProt P14416); test: cell-based
H2 = H2 (Homo sapiens, UniProt P25021); test: cell-based
CB1 = CB1 (Homo sapiens, UniProt P21554); test: cell-based
V1a [4] = biological target: T3, V1a; test: cell-based; remark: listed apart in the source
[5] = system: Influenza virus A/Mal/302/54 (H1N1); test: microbe, parasite or virus in culture; assay type: cell-based; conditions: H1N1, MDCK, read-out: EC50 (mean ± SD)
[6] = system: Influenza virus A/California/07/2009 (H1N1)pdm09; test: microbe, parasite or virus in culture; assay type: cell-based; conditions: H1N1, MDCK, read-out: EC50 (mean ± SD)
HSV-1 GHSV-UL46 = test: microbe, parasite or virus in culture; assay type: cell-based, herpes simplex virus type 1; conditions: Human alphaherpesvirus 1, Vero C1008, read-out: EC50 for Virus
HPIV-3 C243 = test: microbe, parasite or virus in culture; assay type: cell-based, human parainfluenza virus type 3; conditions: Human respirovirus 3, LLC-MK2, read-out: EC50 for Virus
HCV replicon 1b = test: microbe, parasite or virus in culture; assay type: cell-based; conditions: Hepatitis C virus, read-out: EC50 for Virus
[7] = system: influenza A virus WSN/33 (H1N1); design: species or system BALB/c mice; conditions: mouse, in vivo
A/PR/8/34 (H1N1) = system: A/PR/8/34 (H1N1); design: species or system BALB/c mice; conditions: mouse, in vivo
[8] = system: influenza A virus/California/07/2009 (H1N1); design: species or system ferrets; conditions: in vivo, po, 25 mg/kg/day
22 GPCR targets = assay type: cell-based, human; conditions: read-out: IC50 (antagonist screening)
[9] = rat, in vivo, 15 mg/kg
in vitro = conditions: rhesus monkey
CAMK2 alpha = CAMK2 alpha (Homo sapiens, UniProt Q9UQM7); test: biochemical
DYRK3 = DYRK3 (Homo sapiens, UniProt O43781); test: biochemical
MAP4K4 = MAP4K4 (Homo sapiens, UniProt O95819); test: biochemical
MST4 = MST4 (Homo sapiens, UniProt Q9P289); test: biochemical
TAOK2 = TAOK2 (Homo sapiens, UniProt Q9UL54); test: biochemical
[10] = 10,000 nM, read-out: Inhibition at Maximum Concentration (%)

T1 sequence (P35372 whole entry): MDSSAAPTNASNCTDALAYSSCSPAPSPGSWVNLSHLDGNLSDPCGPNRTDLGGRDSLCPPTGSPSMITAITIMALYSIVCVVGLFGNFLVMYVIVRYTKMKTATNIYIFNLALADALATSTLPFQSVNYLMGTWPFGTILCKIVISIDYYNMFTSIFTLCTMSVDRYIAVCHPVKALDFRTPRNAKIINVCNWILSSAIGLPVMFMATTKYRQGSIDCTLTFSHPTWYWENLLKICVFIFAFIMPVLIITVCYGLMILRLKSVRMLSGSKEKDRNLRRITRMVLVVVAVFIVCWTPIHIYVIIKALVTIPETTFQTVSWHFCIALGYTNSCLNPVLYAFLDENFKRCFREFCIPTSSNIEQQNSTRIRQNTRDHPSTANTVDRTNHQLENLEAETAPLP
T3 sequence (P37288 whole entry): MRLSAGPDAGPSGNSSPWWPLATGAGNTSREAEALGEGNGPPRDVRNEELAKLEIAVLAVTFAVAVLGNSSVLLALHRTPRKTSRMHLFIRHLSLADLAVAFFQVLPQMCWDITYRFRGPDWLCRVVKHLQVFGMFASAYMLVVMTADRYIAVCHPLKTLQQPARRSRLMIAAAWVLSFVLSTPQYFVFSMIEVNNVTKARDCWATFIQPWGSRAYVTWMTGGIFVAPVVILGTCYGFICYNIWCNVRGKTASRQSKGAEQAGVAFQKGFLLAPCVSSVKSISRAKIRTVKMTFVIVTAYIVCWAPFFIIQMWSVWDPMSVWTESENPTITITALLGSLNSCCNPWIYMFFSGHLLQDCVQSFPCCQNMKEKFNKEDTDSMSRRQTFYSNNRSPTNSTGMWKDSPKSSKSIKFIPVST
M1, sequence (P11229 whole entry): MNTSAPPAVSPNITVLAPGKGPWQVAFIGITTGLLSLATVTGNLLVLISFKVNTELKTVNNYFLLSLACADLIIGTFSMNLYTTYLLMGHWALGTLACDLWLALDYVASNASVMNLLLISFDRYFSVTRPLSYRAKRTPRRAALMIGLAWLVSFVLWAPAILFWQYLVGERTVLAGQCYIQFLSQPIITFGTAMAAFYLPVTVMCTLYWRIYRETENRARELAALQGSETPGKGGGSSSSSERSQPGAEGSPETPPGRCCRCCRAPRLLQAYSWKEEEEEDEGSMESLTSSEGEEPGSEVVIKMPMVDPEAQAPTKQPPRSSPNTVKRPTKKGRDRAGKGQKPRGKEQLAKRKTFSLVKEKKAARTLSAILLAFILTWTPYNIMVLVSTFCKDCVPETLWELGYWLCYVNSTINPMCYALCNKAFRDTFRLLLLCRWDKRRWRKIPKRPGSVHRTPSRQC
Beta2, sequence (P07550 whole entry): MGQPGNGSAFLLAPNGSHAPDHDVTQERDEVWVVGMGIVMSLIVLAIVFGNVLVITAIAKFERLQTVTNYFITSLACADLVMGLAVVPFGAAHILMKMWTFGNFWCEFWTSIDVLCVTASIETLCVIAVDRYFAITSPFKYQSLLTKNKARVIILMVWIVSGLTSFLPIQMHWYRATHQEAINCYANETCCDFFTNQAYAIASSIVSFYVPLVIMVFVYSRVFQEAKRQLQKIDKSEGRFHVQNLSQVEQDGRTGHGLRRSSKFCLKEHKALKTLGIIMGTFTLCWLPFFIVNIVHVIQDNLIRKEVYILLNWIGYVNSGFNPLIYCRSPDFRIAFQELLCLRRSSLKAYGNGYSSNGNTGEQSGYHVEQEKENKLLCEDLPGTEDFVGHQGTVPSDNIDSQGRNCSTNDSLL
M2, sequence (P08172 whole entry): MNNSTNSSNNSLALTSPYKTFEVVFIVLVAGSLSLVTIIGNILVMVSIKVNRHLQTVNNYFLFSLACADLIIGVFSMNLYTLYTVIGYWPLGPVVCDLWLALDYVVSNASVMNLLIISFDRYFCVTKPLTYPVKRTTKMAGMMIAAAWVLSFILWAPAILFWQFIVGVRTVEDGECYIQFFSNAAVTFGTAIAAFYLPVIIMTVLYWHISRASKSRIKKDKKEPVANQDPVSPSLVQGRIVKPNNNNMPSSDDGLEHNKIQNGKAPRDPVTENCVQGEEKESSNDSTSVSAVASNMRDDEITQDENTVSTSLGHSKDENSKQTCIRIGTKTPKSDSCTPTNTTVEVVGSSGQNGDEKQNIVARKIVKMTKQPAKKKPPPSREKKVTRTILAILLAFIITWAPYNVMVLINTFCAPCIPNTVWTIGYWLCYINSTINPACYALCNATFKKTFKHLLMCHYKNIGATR
CB1, sequence (P21554 whole entry): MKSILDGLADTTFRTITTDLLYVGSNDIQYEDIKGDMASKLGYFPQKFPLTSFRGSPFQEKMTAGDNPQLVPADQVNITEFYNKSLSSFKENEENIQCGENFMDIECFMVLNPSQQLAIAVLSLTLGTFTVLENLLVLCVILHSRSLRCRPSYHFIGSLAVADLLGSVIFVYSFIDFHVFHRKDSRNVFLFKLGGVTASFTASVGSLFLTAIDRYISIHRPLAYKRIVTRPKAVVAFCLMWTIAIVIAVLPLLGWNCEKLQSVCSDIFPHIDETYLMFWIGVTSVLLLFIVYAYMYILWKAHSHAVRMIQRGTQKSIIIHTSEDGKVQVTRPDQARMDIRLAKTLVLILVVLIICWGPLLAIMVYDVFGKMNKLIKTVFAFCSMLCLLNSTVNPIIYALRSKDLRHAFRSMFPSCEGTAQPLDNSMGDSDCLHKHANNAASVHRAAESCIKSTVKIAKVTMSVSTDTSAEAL
H2, sequence (P25021 whole entry): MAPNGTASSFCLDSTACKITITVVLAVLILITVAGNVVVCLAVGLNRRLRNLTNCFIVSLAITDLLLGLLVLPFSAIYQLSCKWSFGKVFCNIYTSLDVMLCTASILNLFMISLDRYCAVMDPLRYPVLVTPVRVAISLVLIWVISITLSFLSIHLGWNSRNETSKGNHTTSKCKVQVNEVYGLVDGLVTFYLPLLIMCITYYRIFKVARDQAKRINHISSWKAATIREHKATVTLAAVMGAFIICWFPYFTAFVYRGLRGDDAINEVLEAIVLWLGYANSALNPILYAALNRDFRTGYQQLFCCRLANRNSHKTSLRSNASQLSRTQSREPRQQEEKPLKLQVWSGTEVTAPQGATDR
op-delta, sequence (P41143 whole entry): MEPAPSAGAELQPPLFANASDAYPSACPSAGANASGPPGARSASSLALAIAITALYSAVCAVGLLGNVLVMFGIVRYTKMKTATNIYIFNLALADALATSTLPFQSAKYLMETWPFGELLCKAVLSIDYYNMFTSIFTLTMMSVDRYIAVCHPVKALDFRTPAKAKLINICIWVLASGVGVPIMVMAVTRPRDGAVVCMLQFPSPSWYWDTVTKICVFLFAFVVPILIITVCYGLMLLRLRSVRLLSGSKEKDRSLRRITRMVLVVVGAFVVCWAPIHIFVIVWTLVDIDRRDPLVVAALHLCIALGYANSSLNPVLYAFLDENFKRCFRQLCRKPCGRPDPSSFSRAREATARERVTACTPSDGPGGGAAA
D1, sequence (P21728 whole entry): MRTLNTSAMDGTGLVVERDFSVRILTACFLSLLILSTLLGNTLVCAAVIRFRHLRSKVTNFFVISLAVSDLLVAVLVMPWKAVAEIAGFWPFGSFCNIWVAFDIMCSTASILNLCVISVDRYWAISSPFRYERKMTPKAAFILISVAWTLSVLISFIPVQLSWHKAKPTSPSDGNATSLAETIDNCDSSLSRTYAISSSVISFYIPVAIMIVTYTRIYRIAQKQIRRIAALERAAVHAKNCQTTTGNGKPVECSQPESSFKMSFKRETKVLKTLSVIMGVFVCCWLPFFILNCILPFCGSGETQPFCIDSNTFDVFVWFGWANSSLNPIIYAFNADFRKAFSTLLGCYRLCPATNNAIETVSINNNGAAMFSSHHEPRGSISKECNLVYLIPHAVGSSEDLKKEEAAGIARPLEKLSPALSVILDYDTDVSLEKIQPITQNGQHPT
D2, sequence (P14416 whole entry): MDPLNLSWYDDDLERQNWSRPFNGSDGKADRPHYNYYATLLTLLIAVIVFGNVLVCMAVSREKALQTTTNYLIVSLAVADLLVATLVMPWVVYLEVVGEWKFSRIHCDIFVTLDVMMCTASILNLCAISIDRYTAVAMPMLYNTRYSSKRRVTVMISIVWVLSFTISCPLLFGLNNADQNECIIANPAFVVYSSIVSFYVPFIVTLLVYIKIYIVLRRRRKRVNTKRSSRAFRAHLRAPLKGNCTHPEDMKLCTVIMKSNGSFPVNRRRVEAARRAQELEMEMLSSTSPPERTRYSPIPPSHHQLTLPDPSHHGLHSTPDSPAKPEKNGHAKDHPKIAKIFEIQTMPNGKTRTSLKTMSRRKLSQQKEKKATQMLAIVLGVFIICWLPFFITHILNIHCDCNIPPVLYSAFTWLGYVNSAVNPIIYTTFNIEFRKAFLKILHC
CB2, sequence (P34972 whole entry): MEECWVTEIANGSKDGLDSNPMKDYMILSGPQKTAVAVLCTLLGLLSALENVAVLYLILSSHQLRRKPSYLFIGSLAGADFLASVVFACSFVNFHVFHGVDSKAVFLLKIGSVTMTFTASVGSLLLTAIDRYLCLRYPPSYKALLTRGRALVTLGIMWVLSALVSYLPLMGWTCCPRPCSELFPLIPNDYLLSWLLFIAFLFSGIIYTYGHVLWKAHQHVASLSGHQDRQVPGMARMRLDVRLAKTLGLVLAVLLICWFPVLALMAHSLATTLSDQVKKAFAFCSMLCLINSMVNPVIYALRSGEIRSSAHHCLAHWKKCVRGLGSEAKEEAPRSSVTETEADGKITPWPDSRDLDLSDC

SMILES: O=C(O)[C@H]1C2CCC(CC2)[C@@H]1Nc1nc(-c2n[nH]c3ncc(F)cc23)nc(C2CC2)c1F [ZSP1273]
- IC50 (CDK2): > 10 µM
- IC50 (FGFR1): > 10 µM
- IC50 (JNK1): > 10 µM
- IC50 (p38 alpha): > 10 µM
- EC50 (op-mu [1]): > 12 µM
- Activity at Maximum Concentration (%) (op-mu [1]; 12,000 nM): −3.45%
- EC50 (D1): > 12 µM
- Activity at Maximum Concentration (%) (D1; 12,000 nM): −2.15%
- EC50 (M1): > 12 µM
- Activity at Maximum Concentration (%) (M1; 12,000 nM): −3.22%
- EC50 (M2): > 12 µM
- Activity at Maximum Concentration (%) (M2; 12,000 nM): −3%
- EC50 (Beta2): > 12 µM
- Activity at Maximum Concentration (%) (Beta2; 12,000 nM): 1.43%
- EC50 (CCKa): > 12 µM
- Activity at Maximum Concentration (%) (CCKa; 12,000 nM): −4.4%
- EC50 (CB2): > 12 µM
- Activity at Maximum Concentration (%) (CB2; 12,000 nM): −17.1%
- EC50 (V1a [2]): > 12 µM
- Activity at Maximum Concentration (%) (V1a [2]; 12,000 nM): 6.27%
- IC50 (op-delta): > 10 µM
- inhibition at 10 µM (op-delta; [10]): 7.37%
- IC50 (op-mu [3]): > 10 µM
- inhibition at 10 µM (op-mu [3]; [10]): -24.5%
- IC50 (D2): > 10 µM
- inhibition at 10 µM (D2; [10]): 13.6%
- IC50 (H2): > 10 µM
- inhibition at 10 µM (H2; [10]): 42.4%
- IC50 (CB1): > 10 µM
- inhibition at 10 µM (CB1; [10]): -77.2%
- IC50 (V1a [4]): > 10 µM
- inhibition at 10 µM (V1a [4]; [10]): 7.24%
- EC50 [5]: 0.028 ± 0.011 nM
- EC50 [6]: 0.02 ± 0.003 nM
- EC50 (HSV-1 GHSV-UL46): > 10 µM
- EC50 (HPIV-3 C243): > 10 µM
- EC50 (HCV replicon 1b): > 10 µM
- day on which mice began to regain body weight [7]: 4 days and 5 days
- decrease of viral load in lung tissues vs vehicle ([7]; 3 mg/kg): 2.37 log10
- decrease of viral load in lung tissues vs vehicle ([7]; 10 mg/kg): 3.1 log10 and 4.18 log10
- decrease of viral load in lung tissues vs vehicle ([7]; 30 mg/kg): 4.97 log10
- viral titer in lung tissues ([7]; 30 mg/kg): < 2.0 log10
- lung index (A/PR/8/34 (H1N1)): significantly decreased
- viral titers in the lung tissues (A/PR/8/34 (H1N1)): 0
- viral load in nasal lavage fluid vs vehicle [8]: decreased significantly
- IC50 (22 GPCR targets): > 10 µM
- accumulation (AUC0-last and Cmax, day 7 vs day 1) [9]: No significant accumulation
- CC50 (in vitro): > 10 µM
- IC50 (CAMK2 alpha): > 10 µM
- IC50 (DYRK3): > 10 µM
- IC50 (MAP4K4): > 10 µM
- IC50 (MST4): > 10 µM
- IC50 (TAOK2): > 10 µM
